Results published in the OPERA property sets (Mansouri et al. 2018).
Peptide text beside a SMILES is read from it.

SMILES	logP
CCOC(=O)C(=Cc1cccc([N+](=O)[O-])c1)C(=O)OCC	2.71
CC(=O)C(C)(C)C	1.2
NC(=O)c1cccc(Br)c1	1.65
NS(=O)(=O)c1nc2ccccc2s1	1.33
Cc1ccc(Cl)cc1	3.33
CCCCNCCCC	2.83
S=C1CCCCCN1	0.75
Cc1cc(-c2ccc(N)c(C)c2)ccc1N	2.34
N#Cc1c2ccccc2cc2ccccc12	4.26
ClC1C=CC(Cl)C(Cl)C1Cl (stereo not given)	3.08
O=C(O)c1c(O)cccc1O	2.2
O=C(O)C(c1ccccc1)c1ccccc1	3.09
CC(=O)c1ccc(Cl)cc1	2.32
NC=O	-1.51
C#C[C@]1(O)CC[C@H]2[C@@H]3CCc4cc(O)ccc4[C@H]3CC[C@@]21C	3.67
Cc1ccccn1	1.11
CC1CN(N=O)CC(C)N1 (stereo not given)	0.73
N#CC(C(=O)NC(CO)C(O)c1ccc([N+](=O)[O-])cc1)c1ccccc1 (stereo not given)	1.47
CC(C(c1ccccc1)c1ccccc1)[N+](=O)[O-] (stereo not given)	3.91
O=C1CCCCO1	-0.35
COC(=O)c1ccccc1C(=O)O	1.13
CCCCCc1ccc(N)cc1	3.39
C1=c2ccc3cccc4ccc(c2c43)CC1	4.92
CC1=C(C)C(=O)C(C)=C(C)C1=O	2.23
Nc1nc(N)nc(N)n1	-1.37

SMILES	logP
CC(C)(C)c1ccc([N+](=O)[O-])cc1	3.89
OCc1cccnc1	-0.02
O=C(Cc1cccs1)N[C@@H]1C(=O)N2C(C(=O)[O-])=C(C[n+]3ccccc3)CS[C@H]12	-1.62
CN(Cc1cnc2nc(N)nc(N)c2n1)c1c(Cl)cc(C(=O)N[C@@H](CCC(=O)O)C(=O)O)cc1Cl	-0.1
COc1ccccc1OCC(=O)NNC(C)C	1.11
C1=CC=CC=CC=C1	3.08
NC(=O)c1ccoc1	0.09
O=c1cc[nH]cn1	-1.38
NS(=O)(=O)c1ccccc1	0.31
CCC1(c2ccccc2)C(=O)NC(=O)NC1=O	1.47
CCCCc1ccc(S(N)(=O)=O)cc1	2.45
CC#CC#CC	2.24
C=COCC	1.04
CCCC(=O)OC1(C(=O)CCl)C(C)CC2C3CCC4=CC(=O)C=CC4(C)C3(F)C(O)CC21C (stereo not given)	3.63
CN(C)C(=O)OCc1ccc(I)cc1	3.32
O=C(O)CNC(=O)c1ccccc1O	0.95
NC(=O)C(Cc1ccccc1)NC(=O)C(N)Cc1ccccc1 (stereo not given)	1.13
CCCCCCCC1(c2ccncc2)CCC(=O)NC1=O (stereo not given)	3.44
N#Cc1c[nH]c(=O)[nH]c1=O	-0.93
Cc1cc(N)ccc1Br	2.53
FCF	0.2
COc1ccccc1C(=O)O	1.59
CC(C)N1CCN=C1CN1CCCCSc2ccc(Cl)cc21	5.15
c1ccc2c(c1)ccc1ncccc12	3.43
CC12CCC(=O)C=C1CCC1C3CCC(O)(C(=O)CO)C3(C)CC(O)C12F (stereo not given)	1.67

SMILES	logP
CNc1c(Cl)cccc1Cl	2.91
O=C(O)Cc1cccc(Cl)c1	2.09
COc1ccc(NC(C)=O)cc1	1.03
OC1(c2ccc(Cl)cc2)CCN(CCCC2(c3ccc(F)cc3)OCCO2)CC1	3.84
CCCC(=NOCC)C1C(=O)CC2(CCCCC2C)OC1=O (stereo not given)	3.9
COc1ccc(S(N)(=O)=O)cc1	0.47
NNC(=O)c1cccc(Cl)c1	1.18
Oc1cccc(-c2ccccc2)c1	3.23
Cc1[nH]cnc1CSCCNc1cc[nH]c(=O)n1	-0.4
NNS(=O)(=O)c1ccccc1	-0.14
Nc1nc(N)nc(-c2ccccc2Br)n1	1.26
COP(=S)(OC)Oc1ccc([N+](=O)[O-])c(C)c1	3.3
CS(=O)c1ccccc1 (stereo not given)	0.55
CC(=O)Nc1ccc2[nH]c(C)cc2c1	1.21
CC(=O)NC(=O)C1CCC1	-0.4
COC(=O)CCC(=O)OC	0.35
CCCCCCCCOC(N)=O	2.84
C1CCCCCC1	4
CC(=O)N(C)c1ccc(O)cc1	0.61
C=C1C(=O)OC2CC(C)C3CC(=O)C(CC12)C1(C3)C(=O)OC2CC(C)C3C=CC(=O)C3C(C)(O)C21 (stereo not given)	1.66
CCOC(=O)CCl	0.94
Oc1ccc(O)cc1	0.59
Cc1ccc2c(c1)C(=O)C=CC2=O	2.1
CCN(CC)N=Nc1ccc([N+](=O)[O-])cc1	4.17
CCN(CC)CCOC(=O)C=Cc1ccc(F)cc1	3.52

SMILES	logP
CNC(=S)NC	-0.24
Fc1ccccc1CCl	2.67
C=C(C)c1ccccc1	3.48
CCCC(N)Cc1ccccc1 (stereo not given)	2.79
COC1C(O)C(C)OC(OC2CCC3(C)C(CCC4C3CCC3(C)C4(O)CC(O)C34C=CC(=O)OC4)C2)C1O (stereo not given)	0.59
Oc1ccc(Cl)c(Cl)c1	3.33
NCc1ccncc1	-0.38
NC(=O)Nc1cccc2cccnc12	1.62
Oc1ccc(Cl)c2cccnc12	2.88
COc1c(O)cc(Cl)c(Cl)c1Cl	3.77
c1ccc2c(N3CCCCC3)ncnc2c1	2.92
CC1=C(N2CC2)C(=O)C(Cl)=C(N2CC2)C1=O	1.2
O=C(Nc1ccccc1)Nc1ccccc1	3
CCNc1nc(NCC(C)C)nc(SC(F)F)n1	4.3
O=C1CN=C(c2ccccc2C(F)(F)F)c2cc([N+](=O)[O-])ccc2N1	2.51
Cc1cc2nccnc2cc1C	2.29
COC(=O)c1ccccc1N	1.88
CCCc1ccc(C(=O)OCCN(C)C)cc1	3.63
CCC(Cl)(CC)C(=O)NC(N)=O	1.4
COC(=O)c1cccc(S(I)=C(N(C)C)N(C)C)c1 (stereo not given)	-0.75
CC(C)CN(N=O)C(N)=O	1.04
COP(=S)(OC)SCN1C(=O)c2ccccc2C1=O	2.78
CCC1(c2ccccc2)CCC(=O)NC1=O (stereo not given)	1.9
Clc1cccc(Cl)n1	2.15
Clc1ccc(Cl)c(Cl)c1	4.02

SMILES	logP
COC(=O)c1cc(O)c(O)c(O)c1	0.86
CCCCCc1ccncc1	3.75
Clc1ccc2ccccc2n1	2.71
O=[N+]([O-])c1ccc(O/N=C/c2cc(Br)c(O)c(Br)c2)c([N+](=O)[O-])c1	3.3
CC(C)(S)[C@@H](N)C(=O)O	-1.78
CCOC(=O)CNC(=O)CNC(=O)CCCCSc1ncnc2nc[nH]c12	0.5
NC(=O)CCc1ccncc1	-0.25
Cc1cccc(OC(=O)N(C)C)c1	2.05
CC(=O)CCCc1ccccc1	2.42
CCc1cc(OC)c(CC(C)N)cc1OC (stereo not given)	2.81
ClC(Cl)(Cl)Sc1ccccc1	3.78
CCC(=O)c1ccccc1O	2.54
O=S(=O)(Nc1ccccc1)c1ccccc1	2.58
O=[N+]([O-])c1ccco1	0.66
O=C(C(F)(F)F)C(F)(F)F	1.46
CCCCOc1cccc(OC(=O)NC)c1	2.96
N#Cc1cccc2[nH]ccc12	2.46
O=C(O)COc1ccc(Cl)cc1	2.25
O=S(=O)(Nc1ccc(-c2ccccc2)cc1)C(F)(F)F	4.97
CC(C)=NOCCOC(=O)[C@@H](C)Oc1ccc(Oc2cnc3cc(Cl)ccc3n2)cc1	4.6
C=CCO	0.17
N#Cc1ccc2nc(N)[nH]c2c1	1.13
OCCCc1cccnc1	0.6
CC1CCC(O)CC1 (stereo not given)	1.79
CCN(N=O)C(C)C	0.9

SMILES	logP
O=[N+]([O-])c1ccc2ncccc2c1	1.84
O=C(O)c1c2ccccc2cc2ccccc12	3.85
OCc1ccc(Cl)cc1	1.96
O=C(O)COc1ccc(Cl)c(Br)c1	2.75
COP(=O)(OC)OC	-0.65
NC(=O)CBr	-0.52
CCN(CC)C(=O)[C@@H]1C=C2c3cccc4[nH]cc(c34)C[C@H]2N(C)C1	2.95
CN(C)C(=S)NN	-0.3
O=Cc1ccsc1	1.01
CC1(C)C(C(=O)OC(C#N)c2cccc(Oc3ccccc3)c2)C1(C)C (stereo not given)	5.7
CNCC(O)c1ccc(O)c(OC)c1 (stereo not given)	-0.64
CCn1nc2ccccc2n1	2.1
OCc1ccc2c(c1)OCO2	1.05
CC(C)c1cnc([N+](=O)[O-])n1C	1.09
O=[N+]([O-])c1cnc(NC(CO)C(O)CO)cn1 (stereo not given)	-0.89
C=CCOc1ccccc1Cc1cnc(N)nc1N	2.31
O=C1CCC(=O)N1c1cccc([N+](=O)[O-])c1	0.38
Cc1ccc(O)c(C(=O)O)c1	2.78
ClC(Cl)(Cl)C(c1ccccc1)c1ccccc1	4.87
COc1ccccc1C(N)=O	0.86
Fc1c(F)c(F)c(F)c(F)c1F	2.55
Nc1ccc(OC(=O)c2ccc(N)cc2O)cc1	2.04
CCC(C)C(NC(=O)C(CCCCN)NC(C)=O)C(=O)NC(Cc1ccccc1)C(N)=O (stereo not given)	0.65
OCCCCc1ccncc1	0.9
CC(=O)OCCc1ccccc1	2.3

SMILES	logP
CC(=O)N[C@H](C(=O)N[C@H](C(N)=O)C(C)C)[C@@H](C)O (Ac-Thr-Val-NH2)	-1.25
Nc1ccc(S(=O)(=O)Nc2cnc3ccccc3n2)cc1	1.68
c1ccc(-c2cccnc2)nc1	1.46
Nc1ccc(C(=O)Oc2ccc(F)cc2)c(O)c1	3.27
NC(N)=Nc1ccccc1	0.53
CNc1ncnc2c1ncn2C1CC(O)C(CO)O1 (stereo not given)	-0.19
CNC(=O)Oc1ccc(I)cc1	2.46
NNC(=O)c1ccccc1N	-0.18
CN(C)C(N(C)C)=S(I)c1ccccc1Br (stereo not given)	0.06
COc1ccncc1	1
Nc1ccc(I)cc1	2.34
CC(=O)c1cccc(OCC(=O)O)c1	0.98
O=C(Nc1ccccc1)c1cccnc1	1.73
CC(=O)c1ccccc1OCC(=O)O	1.25
O=C1CCCCC1	0.81
NC(=O)C(c1ccccc1)c1ccccn1 (stereo not given)	0.83
Nc1ccc(S(=O)(=O)Nc2ccnn2-c2ccccc2)cc1	1.52
CN(C)C(=O)Oc1ccccc1[N+](=O)[O-]	1.35
CNC(=O)Oc1ccc(C(C)C)c(C)c1	3.11
O=c1[nH]cnc2n[nH]nc12	-1.97
